One test concerns C57/BL6 mice. The class given is in vivo, mouse. As for the experimental part:
Complexes were immunoprecipitated from 300 μg of total protein lysates from each of the indicated treatment groups. ^32P-labeling of histones H1 was measured using a standard Cdk2 kinase assay. […] IFS in DETA/NO-treated mice compared to control Vehicle-treated mice are shown (*P<0.05; n=4 per group).
IFS in Roscovitine-treated mice compared to control vehicle-treated mice are shown (*P<0.001; n=6 per group). […] Ventricular lysates were probed for the indicated proteins. Mean IFS sizes after 24 hours of reperfusion are shown. (*P<0.05 for Cdk2^+/+ versus Cdk2^−/− IFS; n=5 per group).
Male mice were subjected to myocardial ischemia/reperfusion as previously described (Wang, G., et al. 2005. Am. J. Physiol. Heart Circ. Physiol 288:H1290-H1295). Pentobarbital-anesthetized (50 mg/kg body wt i.p.) mice were intubated for positive pressure ventilation with oxygen-enriched room air during the surgical procedure. After left thoracotomy between ribs three and four, the pericardium was opened and a silk 8-0 suture was looped under the left anterior descending coronary artery 1-3 mm from the tip of the normally positioned left atrium. Ischemia was induced by ligation of the suture (a 1 to 2 mm section of PE-10 tubing was placed between the suture and the artery to prevent damage to the vessel). Rectal temperature was continuously measured and maintained at 36.5-37.5° C. Following a 30-min coronary artery occlusion, the suture was removed to allow coronary reperfusion followed by closure of the chest wall. After 24 hours of coronary artery reperfusion the heart was excised and postmortem perfused as previously described (Wang, G., et al. 2005. Am. J. Physiol. Heart Circ. Physiol 288:H1290-H1295). The infarct region was determined by perfusion with a 1% solution of 2,3,5-triphenyltetrazolium chloride (TTC) in phosphate buffer (pH 7.4, 37° C.). To delineate the risk region, the coronary artery was tied at the site of the previous occlusion and the aortic root perfused with a 1% solution of Evans blue dye. Infarct size was measured by planimetry with NIH Image and expressed as a percentage of the area at risk.
Limitation of IFS by pharmacological delayed preconditioning of the heart was induced with the nitric oxide donor diethylenetriamine/nitric oxide (DETA/NO) as previously reported (Wang, G., et al. 2005. Am. J. Physiol. Heart Circ. Physiol 288:H1290-H1295). After dissecting free the left jugular vein in pentobarbital-anesthetized WT mice, DETA/NO was given in 4 boluses 24-hours prior to 30-min coronary artery occlusion (0.1 mg/kg×4, i.v.).

A further test has as its target T1, Cdk2 (Mus musculus, UniProt P97377).
T1 construct: Cdk2 complexes were immunoprecipitated from ventricular lysates from each of the indicated treatment groups; from tissue; host or cells: mouse heart ventricle (C57/BL6 mice, treated in vivo)
Kind of test: Cdk2 immune complex kinase assay on ventricular lysates of treated mice (histones H1 as substrate). As to conditions: DETA/NO 0.1 mg/kg x 4 i.v. 24 hours before I/R, compared to vehicle-treated hearts. The class given is in vivo. As for the experimental part:
Complexes were immunoprecipitated from 300 μg of total protein lysates from each of the indicated treatment groups. ^32P-labeling of histones H1 was measured using a standard Cdk2 kinase assay.
Ventricular lysates were probed for the indicated proteins.
Western blotting was performed using the identical protein lysates. Antibodies were purchased from Santa Cruz Biotechnology (Santa Cruz). Protein expression was visualized using horseradish peroxidase-conjugated second antibodies and enhanced chemiluminescence reagents (Amersham Biosciences). Nonsaturated autoradiographs were quantitated with SigmaScan.
Cdk2 complexes were immunoprecipitated from ventricular lysates from each of the indicated treatment groups.

Like-named read-outs stand apart in the source and are kept apart here.

For the compound `CC[C@H](CO)Nc1nc(NCc2ccccc2)c2ncn(C(C)C)c2n1` [Roscovitine, 6-Benzylamino-2-(R)-[(1-ethyl)-2-hydroxyethylamino]-9-isopropyl-purine], in the test with C57/BL6 mice (Roscovitine 2.8 mg/gm i.p. two hours prior to ischemia, 30 min occlusion, 24 h reperfusion, vs DMSO vehicle), the “reduction in infarct size compared to vehicle treated mice” value came out at 36.7%. In addition, the “infarct size (IFS % of A@R)” value in the test with C57/BL6 mice (Roscovitine 2.8 mg/gm intraperitoneally two hours prior to ischemia, 30 min LAD occlusion, 24 h reperfusion, mean ± SEM, P<0.001 vs vehicle (DMSO), n=6 per group) was 34.2±2.6 IFS % of A@R.
`NCCN(CCN)/[N+]([O-])=N/O` [DETA/NO, diethylenetriamine/nitric oxide]: the “infarct size (IF % of the A@R)” value in the test with C57/BL6 mice (DETA/NO 0.1 mg/kg x 4 i.v. 24 hours before 30-min coronary occlusion, wildtype mice, mean ± SEM, P<0.05 vs vehicle, n=4 per group) was 35.0±3.7 IF % of the A@R. Also, the “reduction in infarct size compared to vehicle treated mice” value with C57/BL6 mice (DETA/NO 0.1 mg/kg x 4 i.v. 24 hours before I/R injury, vs vehicle) stood at 32%. The “Cdk2 activity in hearts after 30 minutes of ischemia” value at Cdk2 is “decreased Cdk2 activity”; at Cdk2 (listed as NO donor), “blocked the upregulation of Cdk2”.

The record behind these values is patent US20070110751A1, “Compositions and methods for reducing infarct size” (priority 2005, published 2007).
